Measurements from ChEMBL document CHEMBL1201862, “PubChem BioAssay data set” (2004).
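Protocol summary: plate cells (96-well), add compound at 5 concentrations, incubate 48 h, interpolate endpoints linearly. At the GI50, growth is halved.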 The source made the active and inactive calls. Cut-off read from the data, not from the text of the source: active = GI50 up to about 1.1 µM and inactive = higher.

Tests used:
Test in all cases: NCI-60 cell line screen, 48 h
[1] = tested on: TK-10
[2] = tested on: ACHN
[3] = tested on: HCT-116
[4] = tested on: SR
[5] = tested on: DMS-114
[6] = tested on: LOX IMVI
[7] = tested on: SNB-19
[8] = tested on: K562
[9] = tested on: SW-620
[10] = tested on: SF-268
[11] = tested on: SK-OV-3
[12] = tested on: CAKI-1
[13] = tested on: MOLT-4
[14] = tested on: OVCAR-3
[15] = tested on: SF-539
[16] = tested on: SK-MEL-5
[17] = tested on: U-251
[18] = tested on: HL-60

Measured: GI50

COC(=O)C1C(=O)O[C@@H](c2ccc(OC)cc2)C1C(=O)OC (some centres not stated)
inactive: [1] > 100 µM | [2] > 100 µM | [3] > 100 µM | [4] > 100 µM | [5] > 100 µM | [6] > 100 µM | [7] > 100 µM | [8] > 100 µM | [9] > 100 µM | [10] > 100 µM | [11] > 100 µM | [12] > 100 µM | [13] > 100 µM | [14] > 100 µM | [15] > 100 µM | [16] > 100 µM | [17] > 100 µM

O=C1C=CC=CC2CC=C[C@@H](O)C12 (some centres not stated)
inactive: [1] 32.4 µM | [2] 17.3 µM | [18] 15.5 µM | [3] 13.2 µM | [4] 18.8 µM | [5] 18.1 µM | [6] 15.6 µM | [7] 22.9 µM | [8] 26.5 µM | [9] 10.5 µM | [10] 21.3 µM | [11] 69.7 µM | [12] 65.6 µM | [13] 20.9 µM | [14] > 10 µM | [15] 24.5 µM | [16] 18 µM | [17] > 10 µM

O=C(Nc1c(O)[nH]c(=S)[nH]c1=O)c1ccccc1
inactive: [1] > 100 µM | [2] > 100 µM | [18] > 100 µM | [3] > 100 µM | [4] > 100 µM | [5] > 100 µM | [6] > 100 µM | [7] > 100 µM | [8] > 100 µM | [9] > 100 µM | [10] > 100 µM | [11] > 100 µM | [12] > 100 µM | [13] > 100 µM | [14] > 100 µM | [15] > 100 µM | [16] > 100 µM | [17] > 100 µM

CC(=O)/C=C/c1ccc(C2CC(C)=Nc3c(ccc4c3C(=O)c3ccccc3C4=O)N2)cc1 (configuration not stated)
inactive: [1] 8.89 µM | [2] 19 µM | [3] 33 µM | [4] > 100 µM | [5] 34.9 µM | [6] 8.83 µM | [7] > 100 µM | [8] > 57.5 µM | [9] 38.5 µM | [10] > 71 µM | [11] 15.9 µM | [12] 6.98 µM | [13] > 100 µM | [14] > 93.8 µM | [15] 63.8 µM | [16] 86.5 µM | [17] 59.7 µM
active: [18] 0.944 µM

CCOC(=O)CCn1cnc(N)n1
inactive: [1] > 100 µM | [2] > 100 µM | [18] > 100 µM | [3] > 100 µM | [4] > 100 µM | [5] > 100 µM | [6] > 100 µM | [7] > 100 µM | [8] > 100 µM | [9] > 100 µM | [11] > 100 µM | [12] > 100 µM | [13] > 100 µM | [14] > 100 µM | [15] > 100 µM | [16] > 100 µM | [17] > 100 µM

O=C1CCN2C(=O)CCN12
inactive: [1] > 100 µM | [2] > 100 µM | [18] > 100 µM | [3] > 100 µM | [4] > 100 µM | [5] > 100 µM | [7] > 100 µM | [8] > 100 µM | [9] > 100 µM | [10] > 100 µM | [11] > 100 µM | [12] > 100 µM | [13] > 100 µM | [14] > 100 µM | [17] > 100 µM

COc1cccc2c1[C@H]1OC(=O)NC1CCCCC2 (some centres not stated)
inactive: [1] > 100 µM | [2] > 100 µM | [18] > 100 µM | [3] > 100 µM | [5] > 100 µM | [6] > 100 µM | [7] > 100 µM | [8] > 100 µM | [9] > 100 µM | [10] > 100 µM | [11] > 100 µM | [12] > 100 µM | [13] > 100 µM | [14] > 100 µM | [15] > 100 µM | [16] > 100 µM | [17] > 100 µM

CCOC(=O)N1C(=O)C2C3C=CC(C2C1=O)C1C2C(=O)N(C(=O)OCC)C(=O)C2C31 (configuration not stated)
inactive: [1] > 100 µM | [2] > 100 µM | [18] 20.3 µM | [3] > 39.5 µM | [5] > 45.9 µM | [6] > 46.6 µM | [7] > 100 µM | [8] > 100 µM | [9] > 41 µM | [10] > 81.3 µM | [11] > 100 µM | [12] > 100 µM | [13] > 100 µM | [14] > 100 µM | [15] > 100 µM | [16] > 100 µM | [17] > 68.1 µM

CC(=O)NNc1nc(C)c(C(=O)/C=C/c2ccc(Cl)cc2)s1
inactive: [1] > 100 µM | [2] > 100 µM | [18] > 100 µM | [5] > 100 µM | [6] > 100 µM | [7] > 100 µM | [8] > 100 µM | [9] > 100 µM | [10] > 100 µM | [11] > 100 µM | [12] > 100 µM | [13] > 100 µM | [14] > 100 µM | [15] > 100 µM | [16] > 100 µM | [17] > 100 µM

CC1=C(C)C(=O)c2c(cc3ccc4ccccc4n23)C1=O
inactive: [1] > 100 µM | [2] > 100 µM | [18] > 100 µM | [4] > 100 µM | [5] > 100 µM | [6] > 100 µM | [7] > 100 µM | [8] > 100 µM | [9] > 100 µM | [10] > 100 µM | [11] > 100 µM | [13] > 100 µM | [14] > 100 µM | [15] > 100 µM | [16] > 100 µM | [17] > 100 µM

CCCCN(CCCC)CCCn1cnc2ncccc2c1=O
inactive: [1] > 100 µM | [2] > 100 µM | [3] > 100 µM | [4] > 100 µM | [5] 53.6 µM | [6] > 100 µM | [7] > 100 µM | [8] > 100 µM | [9] > 100 µM | [10] > 100 µM | [11] > 100 µM | [12] > 100 µM | [13] > 100 µM | [14] > 100 µM | [15] > 100 µM | [16] 72.6 µM | [17] > 100 µM

CC1CCP(=O)(c2ccccc2)CC1 (configuration not stated)
inactive: [1] > 100 µM | [2] > 100 µM | [18] > 100 µM | [5] > 100 µM | [6] > 100 µM | [7] > 100 µM | [8] > 100 µM | [9] > 100 µM | [10] > 100 µM | [11] > 100 µM | [12] > 100 µM | [13] > 100 µM | [14] > 100 µM | [15] > 100 µM | [16] > 100 µM | [17] > 100 µM

CN(C(=O)C12C3C4C1C1C2C3C41C(O)C(C)(C)C)C(C)(C)C (configuration not stated)
inactive: [1] > 100 µM | [2] > 100 µM | [18] > 100 µM | [3] > 100 µM | [5] > 100 µM | [6] > 100 µM | [7] > 100 µM | [8] > 100 µM | [9] > 100 µM | [10] > 100 µM | [11] > 100 µM | [12] > 100 µM | [13] > 100 µM | [14] > 100 µM | [15] > 100 µM | [16] > 100 µM | [17] > 100 µM

C/C(CCN(C)C)=N/O
active: [2] 0.918 µM | [18] 0.281 µM | [3] 0.531 µM | [4] 0.281 µM | [5] 0.8 µM | [8] 0.292 µM | [12] 1.02 µM | [13] 0.328 µM
inactive: [1] 7.73 µM | [7] 35.9 µM | [9] 2.71 µM | [10] 1.49 µM | [11] 17.9 µM | [14] 1.29 µM | [15] 1.14 µM | [17] 6.59 µM

COC(=O)NC(=O)c1cn(CCCOC(=O)CCCCCCCCC(=O)OCCCn2cc(C(=O)NC(=O)OC)c(=O)[nH]c2=O)c(=O)[nH]c1=O
inactive: [1] 36.8 µM | [2] > 100 µM | [18] > 100 µM | [3] > 100 µM | [4] > 100 µM | [5] > 100 µM | [6] > 100 µM | [7] 42.4 µM | [8] > 100 µM | [9] > 100 µM | [10] 31.3 µM | [12] 28.8 µM | [13] > 100 µM | [14] > 100 µM | [15] 71.1 µM | [16] > 100 µM

COc1ccc2c(CCNC(C)=O)c(C(C)=O)[nH]c2c1
inactive: [1] > 100 µM | [2] > 100 µM | [18] > 100 µM | [3] > 100 µM | [4] > 100 µM | [5] > 100 µM | [6] > 100 µM | [7] > 100 µM | [8] > 100 µM | [9] > 100 µM | [10] 48.4 µM | [12] 70.5 µM | [13] > 100 µM | [14] > 100 µM | [15] > 100 µM | [17] > 100 µM
